Results reported in patent publication US6861542B1, “Dimer amidopropyl dimethyl quaternary compounds” (SurfaTech Corporation, priority 2004, dated 2005).

How the values were obtained:
[1] = test system: hair; assay: Half head conditioning study in commercial baby shampoo; type: in vivo; design: key: 1: no conditioning; 2: minimal conditioning; 3: measurable conditioning; 4: good conditioning; 5: excellent conditioning; conditions: 0.5% active by weight in commercial baby shampoo, 10 people, average rounded to nearest whole number
Method: The baby shampoo compounds were evaluated on 10 people with half head studies. The values reported were the average rounded to the nearest whole number. […] The scale used to evaluate was: [table]

[2] = Anionic compatibility test (titration of 10% sodium lauryl sulfate with 10% solids quat solution); type: physicochemical; conditions: 10% solids solution added to 100 ml of 10% sodium lauryl sulfate; for number of ml of solution A at the first point haze or precipitate was noted (end point): test stopped at 100 ml (fully compatible)
Method: The compounds evaluated were diluted to 10% solids with DI water before evaluation.
A solution of 10% b weight sodium lauryl sulfate was prepared. The sodium lauryl sulfate was obtained from Colonial Chemical in South Pittsburgh Tennessee.
Anionic Compatibility Test
100 ml of solution B was added to a 400 ml beaker. Solution A was slowly added until either a precipitate or haziness was noted. The number of ml of solution was recorded at the first point the haze of precipitate was noted. That point was noted as the end point. The higher the volume used to the end point the better the compatibility. The test is stopped at 100 ml at which point the product is considered fully compatible.

Compound: Dimer benzyl quat [Example 5]
- Conditioning Value [1]: 5
- anionic compatibility rating [2]: Very
- number of ml of solution A at the first point haze or precipitate was noted (end point) [2]: 88.2 mL

Compound: Dimer tri-methyl quat [Example 7]
- Conditioning Value [1]: 4
- anionic compatibility rating [2]: Compatible
- number of ml of solution A at the first point haze or precipitate was noted (end point) [2]: 58.9 mL

Compound: Dimer glyceryl quat [Example 3]
- Conditioning Value [1]: 4
- anionic compatibility rating [2]: Fully
- number of ml of solution A at the first point haze or precipitate was noted (end point) [2]: 100.0 mL

Compound: CCCCCCCCCCCCCCCCCC(=O)NCCCN(C)C.Cl [Stearylamidopropyl dimethyl ammonium chloride, reference compound]
- Conditioning Value [1]: 1
- anionic compatibility rating [2]: mildly compatible
- number of ml of solution A at the first point haze or precipitate was noted (end point) [2]: 20.0 mL

Compound: Hydrogenated dimer tri-methyl [Example 8]
- Conditioning Value [1]: 4
- anionic compatibility rating [2]: Compatible
- number of ml of solution A at the first point haze or precipitate was noted (end point) [2]: 59.6 mL

Compound: Hydrogenated dimer glyceryl quat [Example 4]
- Conditioning Value [1]: 4
- anionic compatibility rating [2]: Fully
- number of ml of solution A at the first point haze or precipitate was noted (end point) [2]: 100.0 mL

Compound: Hydrogenated dimer benzyl quat [Example 6]
- Conditioning Value [1]: 5

Compound: CCCCCCCCCCCCCCCCCC[N+](C)(C)Cc1ccccc1.[Cl-] [Stearyl dimethyl denzalkonium chloride, reference compound]
- anionic compatibility rating [2]: Very Incompatible
- number of ml of solution A at the first point haze or precipitate was noted (end point) [2]: 1.0 mL

Compound: Cetyl trimethyl benzyl ammonium chloride [reference compound]
- anionic compatibility rating [2]: Very Incompatible
- number of ml of solution A at the first point haze or precipitate was noted (end point) [2]: 0.5 mL
